Measured values from patent US20060063711A1, “Use of sglt homolog” (priority 2002, published 2006).

Legend:
human SGLT homolog [1] = molecular target: T1, human SGLT homolog (Homo sapiens, UniProt Q2M3M2, I269M); assay: substrate specificity, α-methyl glucose uptake test in human SGLT homolog-transfected COS7 cells; assay type: cell-based; set-up: expressed in transfected cells; host or cells: COS7 cells; details: sugar added at 0, 1 and 10 mM
T1 sequence (Q2M3M2 8-681 I269M limits assumed): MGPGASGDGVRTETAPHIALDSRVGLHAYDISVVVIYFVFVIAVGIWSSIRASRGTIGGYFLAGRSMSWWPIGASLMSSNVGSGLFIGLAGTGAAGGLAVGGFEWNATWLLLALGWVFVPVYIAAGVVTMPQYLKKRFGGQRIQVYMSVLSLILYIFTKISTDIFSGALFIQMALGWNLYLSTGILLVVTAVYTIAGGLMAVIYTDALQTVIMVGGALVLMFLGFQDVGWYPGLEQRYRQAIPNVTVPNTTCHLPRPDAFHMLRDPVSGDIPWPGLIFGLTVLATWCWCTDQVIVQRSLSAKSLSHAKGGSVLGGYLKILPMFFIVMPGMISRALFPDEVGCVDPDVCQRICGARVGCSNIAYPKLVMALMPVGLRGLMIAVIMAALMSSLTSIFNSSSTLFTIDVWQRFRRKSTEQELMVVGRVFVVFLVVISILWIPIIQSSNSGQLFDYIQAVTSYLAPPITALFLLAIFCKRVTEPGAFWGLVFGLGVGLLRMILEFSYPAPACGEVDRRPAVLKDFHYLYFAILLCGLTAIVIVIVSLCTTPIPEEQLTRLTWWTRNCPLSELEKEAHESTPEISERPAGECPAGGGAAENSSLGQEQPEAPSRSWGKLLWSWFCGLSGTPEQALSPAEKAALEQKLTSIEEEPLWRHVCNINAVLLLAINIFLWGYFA
Protocol: (§1) The human SGLT homolog or human SGLT1-transfected COS7 cells were prepared and the respective substrate specificities were examined. The α-methyl glucose uptake test was carried out in accordance with the procedures described in Am. J. Physiol., 270: G833-G843, 1996 and J. Clin. Invest., 93: 397-404, 1994. The cells were plated on 100 μl of DMEM medium containing 10% FBS charged in a 96-well plate in a cell density of 3×10^4 cells/well, followed by culturing overnight at 37° C. Each well was washed 3 times with a reaction buffer solution supplemented with 125 mM N-Methyl-D-Glucamine (1.2 mM KH2PO4, 2.5 mM CaCl2, 1.2 mM MgSO4, 4 mM Glutamine, 10 mM HEPES (pH 7.2), 0.1 mg/ml BSA) and further cultured for an hour in the same buffer solution to remove the glucose remained in the cells. Next, 150 mM NaCl was added to the reaction buffer solution above and glucose or galactose was added to the mixture in 0, 1 and 10 mM, respectively. Then 90 μl each of the thus prepared mixtures was added per well. […] After washing 3 times with 200 μl of chilled PBS, 100 μl each of liquid scintillator was added per well and the radioactivity of ^14C taken up into the cells was counted with a scintillation counter.

human SGLT1 [2] = molecular target: T2, human SGLT1 (Homo sapiens, UniProt P13866); assay: substrate specificity, α-methyl glucose uptake test in human SGLT1-transfected COS7 cells; assay type: cell-based; set-up: expressed in transfected cells; host or cells: COS7 cells; details: sugar added at 0, 1 and 10 mM
T2 sequence (P13866 1-664): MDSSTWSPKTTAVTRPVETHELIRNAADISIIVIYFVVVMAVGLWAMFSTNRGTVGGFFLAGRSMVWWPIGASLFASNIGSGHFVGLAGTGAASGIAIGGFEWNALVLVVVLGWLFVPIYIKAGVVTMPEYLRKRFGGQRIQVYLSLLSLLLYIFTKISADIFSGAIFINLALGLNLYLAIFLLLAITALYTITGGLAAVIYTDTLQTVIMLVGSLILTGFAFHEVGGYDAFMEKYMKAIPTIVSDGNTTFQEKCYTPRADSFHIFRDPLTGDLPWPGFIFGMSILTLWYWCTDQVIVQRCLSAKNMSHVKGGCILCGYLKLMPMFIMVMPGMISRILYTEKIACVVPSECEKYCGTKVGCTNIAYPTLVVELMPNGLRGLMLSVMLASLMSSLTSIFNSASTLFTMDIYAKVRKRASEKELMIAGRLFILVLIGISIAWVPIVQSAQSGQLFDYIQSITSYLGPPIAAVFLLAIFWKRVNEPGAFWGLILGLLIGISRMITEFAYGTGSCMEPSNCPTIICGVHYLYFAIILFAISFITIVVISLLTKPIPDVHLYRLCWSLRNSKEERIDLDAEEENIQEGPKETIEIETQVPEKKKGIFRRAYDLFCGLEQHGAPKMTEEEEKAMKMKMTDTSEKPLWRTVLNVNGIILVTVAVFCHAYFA
Protocol: as §1

human SGLT1 [3] = molecular target: T2, human SGLT1; assay: kinetic analysis of glucose uptake in human SGLT1-transfected COS7 cells
Protocol: (§2) The human SGLT homolog or the human SGLT1-transfected COS7 cells were prepared and subjected to kinetic analysis of glucose uptake, respectively. […] The cells were plated on 100 μl of DMEM medium containing 10% FBS charged in a 96-well plate in a cell density of 3×10^4 cells/well, followed by culturing overnight at 37° C. […] Then 90 μl each of the thus prepared mixtures was added per well. In addition, 10 μl each of α-methyl glucose in a final concentration of 1 mM, which contained 0.02 μCi of [^14C]-α-methyl glucose (Amersham Pharmacia Biotech, Inc.), was added per well to carry out a glucose uptake reaction for an hour. After washing 3 times with 200 μl of chilled PBS, 100 μl each of liquid scintillator was added per well and the radioactivity of ^14C taken up into the cells was counted with a scintillation counter to determine Km and Vmax in the glucose uptake.

human SGLT homolog [4] = molecular target: T1, human SGLT homolog; assay: kinetic analysis of glucose uptake in human SGLT homolog-transfected COS7 cells
Protocol: as §2

[5] = read-out: Km in the glucose uptake, α-methyl glucose 0 to 20 mM, 150 mM NaCl
[6] = α-methyl glucose 0 to 20 mM, 150 mM NaCl

Structure (SMILES)	affinity (competition of α-methyl glucose uptake) (human SGLT homolog [1])	affinity (competition of α-methyl glucose uptake) (human SGLT1 [2])	Km (human SGLT1 [3]; [5]) [mM]	Vmax in the glucose uptake (human SGLT1 [3]; [6]) [nmol/hour/106 cells]	Km (human SGLT homolog [4]; [5]) [mM]	Vmax in the glucose uptake (human SGLT homolog [4]; [6]) [nmol/hour/106 cells]
O=C[C@H](O)[C@@H](O)[C@@H](O)[C@H](O)CO [galactose]	little affinity	had affinity				
COC1OC(CO)C(O)C(O)C1O (stereo not drawn) [α-methyl glucose]			1.8	3.9	7.9	8.0
